Data set [1] relates to Histamine-induced anaphylactoid reactions. Description: Inhibition of anaphylactoid cutaneous reaction induced by histamine. The class given is in vivo, rat (Sprague-Dawley). The following applies: Rattus norvegicus, 1 h; rats, 2 × 10^-5 mol/kg p.o., one hour before challenge; histamine intradermal. Here is the method:
(§1) 1. Determination of the inhibition of passive cutaneous anaphylaxis (P.C.A.) and of the anaphylactoid cutaneous reaction induced by histamine.
(§2) The determination of the inhibition of passive cutaneous anaphylaxis and the anaphylactoid cutaneous reaction induced by histamine was carried out as follows:
To determine the histamine-induced anaphylactoid skin reaction, the animals were injected intradermally in the flank opposite to the antiserum administration with 50 μl of a physiological saline solution containing 0.8 mg/ml of histamine directly before the i.v. injection of the solution containing the ovalbumin and the blue dye.
(§3) On the test days, the test substances were dissolved in distilled water which contained 1% by volume of dimethylformamide and 1% by volume of Tween®20 (polyoxyethylene(20) sorbitan monolaurate). One hour before the challenging ovalbumin administration, each animal received 2×10^-5 mol/kg of test substance administered orally in 0.5 ml of solution. A control group received only the solvent for comparison.
(§4) The oedematous anaphylactic (P.C.A.) and anaphylactoid (histamine-induced) reactions caused by the challenging i.v. ovalbumin injection, which are manifested by oedema formation, swelling and exudation of blue dye, were evaluated 30 minutes after challenge by the i.v. ovalbumin injection. This was done by visual determination of the extent to which the blue dye emerges at the sites of oedema formation. The percentage inhibition of anaphylactic and anaphylactoid reactions caused by the test substances was determined in comparison with the reactions of the control animals not treated with test substance with the aid of comparison scales.
(§5) The results obtained by the above test methods using compounds of the formula I are shown in the following Table A. The example numbers given for the compounds of formula I relate to the following preparation examples.

A short description of data set [2]: Determination of the minimum toxic dose. On the set-up: species or system male mice. Particulars: mouse, in vivo, po, 300 mg/kg, 1440 min. Here is the method: 2. Determination of the minimum toxic dose.
Maximum doses of 300 mg/kg of the test substance were administered orally to male mice weighing 20-25 g. The animals were observed carefully for 3 hours for toxicity symptoms. In addition, all symptoms and deaths over a period of 24 hours after administration were recorded. Associated symptoms were also observed and recorded. If death or severe toxic symptoms were observed, further mice were administered increasingly lower doses. The lowest dose which caused death or severe toxic symptoms is given as the minimum toxic dose in the following Table B.

Data set [3] has as its system P.A.F.-induced aggregation of platelets from rabbit blood. Description: Anti-P.A.F. effect in vitro: inhibition of P.A.F.-induced platelet aggregation. Format: cell-based, rabbit (New Zealand hybrids). The following applies: Oryctolagus cuniculus, Platelet, test substance concentration 10^-5 mol/l. The source says:
4. Determination of anti-P.A.F. effect in vitro.
Platelet-activating factor (P.A.F.) is a phospholipid mediator which has several effects. The activation of platelet aggregation leads to the induction of protracted broncho contractions and hyperreactivity of the airways.
The effects of the test substances on platelet aggregation induced by adding P.A.F. to a platelet suspension obtained from rabbit blood was investigated by the method described by Mikashima et al. (Jap. J. Pharmacol. 44 (1987) 387-391).
A suspension of platelets originating from rabbit blood was used which contained 4×10^9 platelets/ml in a modified Tyrode buffer solution adjusted to pH 7.4. Tyrode solution is an aqueous solution containing 136.9 mmol of NaCl, 2.68 mmol of KCl, 2.31 mmol of CaCl2, 1.0 mmol of MgCl2, 11.9 mmol of NaHCO3, 1.45 mmol of NaH2 PO4 and 5.55 mmol of glucose per liter. This solution was modified by adding 1.3 mM/l of CaCl2 and 2.5 g/l of gelatin. The platelets were obtained from 10 ml blood samples from each of three rabbits (New Zealand hybrids, body weight 3-4 kg). For this, the blood samples were treated with ethylenediaminetetraacetic acid and washed by the method of Artley et al. (Brit. J. Hamatol. 19 (1970), 7-17). A platelet-rich plasma was then initially separated by centrifugation (20 minutes at 400×g). The platelets were separated from the plasma by centrifuging again for 15 minutes at 1400×g. After centrifuging, the platelets remaining as a sediment were resuspended in a calcium-free Tyrode buffer solution. 0.4 mmol of lysine acetylsalicylate were then added and after 15 minutes the blood platelets were sedimented again. The sediment was resuspended in the abovementioned modified Tyrode buffer solution, and the number of platelets in the resulting suspension was adjusted to the desired content.
A 40×10^-9 molar P.A.F. solution was used as the reagent. This solution was prepared from a 1.8×10^-3 molar stock solution in chloroform. For this, a 10μl sample of the stock solution was evaporated to dryness and redissolved in 180 μl of the modified Tyrode solution, to which 0.25% of dilapidated bovine serum albumin had been added. 10^-5 molar working solutions were then prepared from this and stored frozen. Samples of these solutions were appropriately diluted for the tests.
To carry out the tests, 50 μl of the platelet solution and 10 μl of a 40×10^-5 molar solution of the compound to be investigated were added to 330 μl of the modified Tyrode buffer solution with stirring (1000 rpm) in an aggregation tube provided with a small magnetic stirrer. This corresponds to a final test substance concentration of 10^-5 mol/l. After a preincubation time of 90seconds, 10 μl of the P.A.F. preparation were added. The aggregation occurring in the aggregation tubes was measured for 4-5 minutes using a computerized aggregometer.
The aggregation occurring in the test tubes containing only platelet suspension was rated as 0%. The aggregation occurring in test tubes containing platelet suspension and P.A.F. preparation was rated as 100%. The aggregation which still occurred in the presence of the test substances (i.e. during inhibition of the P.A.F.-induced platelet aggregation increase) was measured, and the resulting aggregation inhibition is calculated from this in %.

Data set [4] concerns Passive cutaneous anaphylaxis (P.C.A.). Description: Inhibition of passive cutaneous anaphylaxis (P.C.A.). Particulars: Rattus norvegicus, 1 h; rats, 2 × 10^-5 mol/kg p.o., one hour before ovalbumin challenge. The class given is in vivo, rat (Sprague-Dawley). Here is the method: as §1
The P.C.A. reaction was carried out according to the methods described by Goose et al. (J.N. Immunology 16 (1969), 749) and by Martin et al (Arch. Pharmacol. 316 (1981), 186}.
The IgE-rich ovalbumin antiserum used in the test was obtained from immunized Brown-Norway rats. For immunization, the rats were given an i.p. injection of a mixture of 100 μg of ovalbumin with a Bordetella pertussis suspension (Vaxicoq®, Manufacturer: Institut Merieux, containing 5×10^9 organisms and 1.25 mg of Al(OH)3). After 20 days, the animals received a further i.p. injection of a solution of 10 μg of ovaIbumin in 0.5 ml of physiological saline solution for reimmunisation. After a further four days, the animals were bled, and the blood was centrifuged The antiserum obtained in this way was stored at -20° C. until use.
as §2
Sprague-Dawley rats having a body weight of 150-180 g were injected intradermally in one flank with 50 μl of a 1:75 dilution of the IgE-rich ovalbumin antiserum in physiological sodium chloride solution for passive sensitization to ovalbumin.
24 hours after sensitization a solution of 8.25 mg/kg of ovalbumin and 26.4 mg/kg of a blue dye (Evans' Blue) was administered i.v. to the rats according to Martin et al. to induce passive cutaneous anaphylaxis. The ovalbumin challenge caused a local anaphylactic reaction at the site at which the antiserum had been injected.
as §3, §4, §5

A further data set deals with T1, 5-lipoxygenase (Mus musculus, UniProt P48999).
T1 construct: A cell suspension containing peritoneal cells of male mice 8-10 weeks old was obtained; endogenous in cells; host or cells: mouse peritoneal macrophages (male mice 8-10 weeks old), zymosan-stimulated
T1 sequence (P48999 1-674): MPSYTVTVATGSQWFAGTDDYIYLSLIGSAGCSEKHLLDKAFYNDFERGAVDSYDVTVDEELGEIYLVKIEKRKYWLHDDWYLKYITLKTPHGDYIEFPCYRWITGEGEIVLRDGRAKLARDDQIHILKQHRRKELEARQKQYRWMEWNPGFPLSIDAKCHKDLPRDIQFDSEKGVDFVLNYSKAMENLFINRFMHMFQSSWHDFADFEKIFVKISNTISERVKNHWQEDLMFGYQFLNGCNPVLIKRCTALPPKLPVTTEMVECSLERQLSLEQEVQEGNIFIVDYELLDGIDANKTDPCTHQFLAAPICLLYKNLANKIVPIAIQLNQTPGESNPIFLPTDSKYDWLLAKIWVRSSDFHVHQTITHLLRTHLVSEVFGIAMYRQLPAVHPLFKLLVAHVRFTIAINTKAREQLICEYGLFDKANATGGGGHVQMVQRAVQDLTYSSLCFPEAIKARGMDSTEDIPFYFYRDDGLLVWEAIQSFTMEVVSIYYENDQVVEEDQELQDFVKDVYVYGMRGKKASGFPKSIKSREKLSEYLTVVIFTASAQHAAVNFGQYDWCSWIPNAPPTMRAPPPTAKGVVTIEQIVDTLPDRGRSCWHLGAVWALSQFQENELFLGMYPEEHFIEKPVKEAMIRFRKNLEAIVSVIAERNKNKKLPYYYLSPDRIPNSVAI
Description: 5-lipoxygenase inhibition: release of LTC4 from zymosan-stimulated mouse peritoneal macrophage cells. Format: cell-based. Particulars: 10^-5 mol/l, read-out: In vitro % inhibition effect on the release of LTC4. The source says: (§6) 5. In vitro determination of cyclooxygenase inhibition and 5-lipoxygenase inhibition.
(§7) After activation of the cell, arachidonic acid contained in cell membranes is metabolized in two ways. Leukotrienes, inter alia leukotriene C4, are formed under the action of the enzyme 5-lipoxygenase (5-LO), and prostanoids are formed under the action of the enzyme cyclooxygenase (CO). In in vitro systems, the metabolites are secreted from the cell.
(§8) To investigate the cyclooxygenase-inhibiting and the 5-lipoxygenase-inhibiting properties, the inhibitory effect of the test substances on the biosynthesis of the arachidonic acid derivatives leukotriene C4 (LTC4) and 6-ketoprostaglandin F1 α (6-keto-PGF1 α) is determined in vitro on mouse peritoneal macrophage cells. This was accomplished by determining the LTC4 and 6-keto-PGF1 α contents in a culture medium of mouse peritoneal macrophage cells by zymosan stimulation as described by Scott et al. (J. Exp. Med. 152 (1980), 324-335) and by Fradin et al. (Prostaglandins, 33 (1987), 579-589).
(§9) A cell suspension containing peritoneal cells of male mice 8-10 weeks old was obtained in a known manner. A commercially available cell culture solution (RPMI 1640 from Messrs. Gibco) was used to which heparin (I0 international units/ml) and antibiotics were added according to the recipe of Bonney et al. (Biochem. J. 176 (1978) 422-433). The cell suspension was adjusted to a cell concentration of 10^6 cells per ml and distributed uniformly on titer plates containing […] (wells). These were kept for two hours in a humidified incubator filled with air enriched with 7% CO2. Cells not adhering to the titer cell walls were then removed by washing. The remaining macrophage cells adhering to the walls were incubated for about 12 hours in a suspension medium to which 0.1% bovine serum albumin (BSA) were added. The suspension medium was then replaced by a Hanks balanced salt solution (HBSS) containing 10 mM Hepes (hydroxyethyl-piperazinoethanesulfonic acid), to which a 0.1% strength solution of the test substances in aqueous, 1% strength dimethylformamide or only the solvent had been added. After 15 minutes the arachidonic acid metabolism was stimulated by adding 10 particles of zymosan (=glycoproteinmixture, isolated from cell walls of beer yeast, Saccharomyces cerevisiae, manufactured by Sigma Chemical Co., Munich) per titer cell. After 2 hours, samples of each of the supernatant liquids were investigated for their 6-keto-PGF1 α and LTC4 contents by means of an enzyme immunoassay (EIA) carried out by the method of Pradelles et al. (Analytical Chem. 57 (1985), 1170-1173). The determination of LTC4 and the determination of 6-keto-PGF1 α were each carried out in comparison with a comparative scale on suitable dilutions of the samples (1:50 to 1:250 for the LTC4 determination and 1:250 to 1:1250 for the 6-keto-PGF1 α determination). To determine the inhibitory effect of a 10^-5 molar concentration of the compounds, the amount of reference eicosanoids was determined and the inhibitory effect was calculated from this in % inhibition compared to the measurements of the zymosan controls.

The next data set addresses T2, cyclooxygenase (Mus musculus, UniProt P22437).
T2 construct: A cell suspension containing peritoneal cells of male mice 8-10 weeks old was obtained; endogenous in cells; host or cells: mouse peritoneal macrophages (male mice 8-10 weeks old), zymosan-stimulated
T2 sequence (P22437 27-602): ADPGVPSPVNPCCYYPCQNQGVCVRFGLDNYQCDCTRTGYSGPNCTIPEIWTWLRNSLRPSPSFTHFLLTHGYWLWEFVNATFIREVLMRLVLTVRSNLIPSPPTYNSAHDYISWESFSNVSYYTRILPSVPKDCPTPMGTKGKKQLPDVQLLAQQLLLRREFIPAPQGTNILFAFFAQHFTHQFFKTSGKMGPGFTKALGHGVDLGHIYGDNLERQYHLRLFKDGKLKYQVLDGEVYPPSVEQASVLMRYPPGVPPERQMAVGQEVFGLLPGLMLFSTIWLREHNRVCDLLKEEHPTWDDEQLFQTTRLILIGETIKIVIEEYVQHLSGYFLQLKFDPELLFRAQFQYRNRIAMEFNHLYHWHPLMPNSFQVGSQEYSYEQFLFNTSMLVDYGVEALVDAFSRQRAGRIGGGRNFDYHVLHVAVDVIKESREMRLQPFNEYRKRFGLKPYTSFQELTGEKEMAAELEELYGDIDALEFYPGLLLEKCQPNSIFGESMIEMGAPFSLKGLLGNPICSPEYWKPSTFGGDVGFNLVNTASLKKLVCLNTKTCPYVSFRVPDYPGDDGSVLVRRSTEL
Description: Cyclooxygenase inhibition: release of 6-keto-PGF1 α from zymosan-stimulated mouse peritoneal macrophage cells. Format: cell-based. The following applies: 10^-5 mol/l, read-out: In vitro % inhibition effect on the release of 6-keto-PGF1 α.
From the text: as §6, §7, §8, §9

The values that follow come from US5324725A, “7-fused 2-(piperazinoalkyl) indole derivatives, intermediates and compositions thereof” (Kali-Chemie Pharma GmbH, priority 1991, dated 1994).

`Cc1c(CCN2CCC(C(=O)c3ccccc3)CC2)c2cccc3c2n1CCC3C` (stereo not drawn) [Example 56]: the inhibition in vivo at 20 µmol/kg in data set [1] was 50%; in data set [4] it was 80%. Further, the “Minimum toxic dose (lowest dose which caused death or severe toxic symptoms)” value in data set [2] was 300 mg/kg. The compound further came in with an inhibition at 10 µM in data set [3] of 42%.
As for `Cc1ccnc(N2CCN(CCc3c(C)n4c5c(cc(C(=O)c6ccc(Cl)cc6)cc35)CCC4)CC2)c1` [Example 82], the inhibition at 10 µM is 9% at 5-lipoxygenase and 58% on cyclooxygenase.
The corresponding values for `Cc1ccnc(N2CCN(CCc3c(C)n4c5c(cc(CC6CCCCC6)cc35)CCC4)CC2)c1` [Example 84] are 20% and 46%.
As to `Cc1ccnc(N2CCN(CCc3c(-c4ccccc4)n4c5c(cccc35)CCC4)CC2)c1` [Example 40], the figures for the inhibition in vivo at 20 µmol/kg in data set [1] and in data set [4] were 43% and 70%, respectively. The “Minimum toxic dose (lowest dose which caused death or severe toxic symptoms)” value in data set [2] amounted to 300 mg/kg. This compound registered an inhibition at 10 µM in data set [3] of 100%.

For orientation: inhibition in vivo means the drop in the measured response relative to a control, in per cent. Low readings indicate a response near the control, high ones a response far below the control. By inhibition is commonly meant the share of the control response that was lost under treatment.
